{"source": "paper PMC5768801", "about": "“The PII signaling protein from red algae represents an evolutionary link between cyanobacterial and Chloroplastida PII proteins” (Scientific Reports, 2018)", "key": {"[1]": {"biological_target": "ScNAGK in the presence of PpPII (Porphyra purpurea, UniProt P51254)", "sequence (P51254 whole entry)": "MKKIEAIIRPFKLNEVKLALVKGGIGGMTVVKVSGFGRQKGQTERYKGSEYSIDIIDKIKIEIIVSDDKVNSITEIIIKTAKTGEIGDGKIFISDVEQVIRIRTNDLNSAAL", "experiment": "AGPR-coupled NAGK activity assay with PpPII", "format": "biochemical, Synechocystis sp. PCC 6803; Porphyra purpurea", "details": "4 mM ADP with 1 mM ATP", "source_text": "All available structural information of PII proteins revelas that ATP and ADP bind to the same binding sites[2],[7]. When ATP and ADP are simultaneously present, they will compete for binding to the PII trimer. Since, the ATP/ADP binding site of the red algal PpPII protein is highly conserved (Fig. 1), competition between the nucleotides will occur. Since the activation of NAGK by PII is dependent on the ATP-ligated state of PII[9] and ADP inhibits PII-NAGK complex formation[9],[31], competition between ATP/ADP for PII binding can be monitored by measuring NAGK activity[31] under different ATP/ADP ratios. For this assay, we used an AGPR-coupled activity assay for NAGK[33], which allows measurement of NAGK activity in presence of ADP. Different concentrations of ADP were added to reaction mixtures containing either 1 mM or 2 mM ATP, in the absence or presence of PpPII (Fig. 8). Addition of ADP led to a monotonical and shallow decrease in the activity of ScNAGK at both fixed ATP concentration. […]\nThe change in NADPH absorbance was recorded at 340 nm as described previously[31],[33], in a reaction buffer composed of 50 mM potassium phosphate (pH 7.0), 50 mM KCl, 20 mM MgCl2, 0.2 mM NADPH and 0.5 mM DTT. […] The reaction was started by the addition of ScNAGK and was recorded for 10 min with a spectrophotometer (SPECORD 210 PLUS, Analytik Jena). Kinetic constants were calculated as descried above."}, "[2]": {"biological_target": "T1, SyPII (Synechococcus elongatus, UniProt P0A3F4)", "T1 construct": "Strep-tag; made in house", "T1 sequence (P0A3F4 whole entry)": "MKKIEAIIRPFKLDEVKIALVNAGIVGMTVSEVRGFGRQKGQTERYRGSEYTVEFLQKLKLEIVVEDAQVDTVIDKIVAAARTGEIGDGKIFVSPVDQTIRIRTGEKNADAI", "details": "cited from earlier work"}, "[3]": {"biological_target": "T1, SyPII", "experiment": "ITC binding of small effector molecules to cyanobacterial SyPII", "parameters": "species or system Synechococcus elongatus PCC 7942", "experimental": "To gain additional insights into the ligand binding properties of PpPII in comparison to cyanobacterial and chloroplastid PII proteins, isothermal titration calorimetry (ITC) experiments were performed using highly purified Strep-tagged or His-tagged recombinant PpPII, SyPII, CrPII, and PhyscoPII proteins (Supplementary Fig. S1) with different protein/ligand/ concentrations to determine the best fitting conditions of the binding model. The titration experiments were repeated with different protein preparations to confirm the reproducibility of the results. The raw isothermal data were fitted into one-binding site as well as three-sequential binding sites to define the best fitting model. Fitting using a one binding site model states an average Kd value for all available binding sites and the mean of the stoichiometry of bound ligands.\nThe ITC experiments were done using a VP-ITC microcalorimeter (MicroCal, LCC). All details for determination of binding constants for small effector molecules using ITC are fully described in the supplementary information. Heat isotherms of the dilution of the ligand in the cell buffer were collected in a blank run for each experiment in the absence of protein. The binding isotherms were calculated from received data and fitted to one-site and three-sequential binding sites models using the MicroCal ORIGIN software (Northampton) as described. All titrations were performed in duplicates with different purification batches of recombinant PII proteins. The association binding constant (Ka) was generated from the software by de-convolution and curve fitting. For calculation of dissociation constant (Kd), the Ka value was inversed.\nSupplementary Information […]\nDetermination of Binding Constants for Small Effector Molecules using Isothermal […]\nThe binding of the small effector molecules to the recombinant PII proteins was tested using isothermal titration calarmity (ITC); VP-ITC microcalorimeter (MicroCal). All titrations were performed on 20°C using […] injection syringe with injection 6 µl or 10 µl of the tested ligands for 45 or 29 times, respectively into the cell (1.4 ml) with continuous stirring at 155 rpm. All tested ligands were high grade, prepared freshly in the same buffer of the protein and purchased from Sigma-Aldrich. Heat isotherms for the dilution of the ligand in the cell buffer were collected in a blank run in the absence of protein. The received calorimetric data were analyzed using MicroCal Origin software and fitted into one-site and three-sequential binding sites models, as indicated by the manufacture for calculation of binding isotherms9. For data reproducibility, the titrations were performed in duplicates with different purification batches of recombinant PII proteins. The association binding constant (Ka) was generated from the software by de-convolution and curve fitting. For calculation of dissociation constant (Kd), the Ka value was inversed. […]\nFor determination the binding isotherms of cyanobacterial SyPII protein, a strep-tagged recombinant protein (20 µM trimeric concentration) was overexpressed and used as described previously9, 15, in a buffer composed of 10 mM Hepes-NaOH, 50 mM KCl, 50 mM NaCl, and 1"}}, "note": "Like-named read-outs stand apart in the source and are kept apart here."}
{"smiles": "Nc1ncnc2c1ncn2[C@@H]1O[C@H](COP(=O)(O)OP(=O)(O)O)[C@@H](O)[C@H]1O", "note": "[ADP]", "values": [{"measurement": "ScNAGK activity in the presence of PpPII at the highest ADP/ATP ratio", "setting": "[1]", "value": "as low as ScNAGK activity in the absence of PpPII"}, {"measurement": "Kd", "setting": "[2]; read-out: Kd1 (three-sites binding model), titrant alone, given in parentheses for comparison", "value": 10.6, "unit": "µM"}, {"measurement": "Kd", "setting": "[2]; read-out: Kd2 (three-sites binding model), titrant alone, given in parentheses for comparison", "value": 19.3, "unit": "µM"}, {"measurement": "Kd", "setting": "[2]; read-out: Kd3 (three-sites binding model), titrant alone, given in parentheses for comparison", "value": 133, "unit": "µM"}, {"measurement": "ADP concentration at which the enthalpy reached a maximum (biphasic titration curve)", "setting": "[3]; ADP titrated in the presence of 1 mM 2-OG", "value": "80.0 ± 7.1", "unit": "µM"}, {"measurement": "Kd", "setting": "[3]; Average Kd (one-site binding model), in presence 2-OG (1 mM) and 150 µM ADP", "value": "45.8 ± 44", "unit": "µM"}, {"measurement": "Kd", "setting": "[3]; Kd1 (three-sites binding model), in presence 2-OG (1 mM) and 150 µM ADP", "value": "10.7 ± 1.9", "unit": "µM"}, {"measurement": "Kd", "setting": "[3]; Kd2 (three-sites binding model), in presence 2-OG (1 mM) and 150 µM ADP", "value": "26.4 ± 4.2", "unit": "µM"}, {"measurement": "Kd", "setting": "[3]; Kd3 (three-sites binding model), in presence 2-OG (1 mM) and 150 µM ADP", "value": "101 ± 103", "unit": "µM"}, {"measurement": "N, number of calculated binding sites (one-site binding model)", "setting": "[3]; in presence 2-OG (1 mM) and 150 µM ADP", "value": 4.0}]}
